Measured values published in paper PMC5884943, “Discovery of Novel Inhibitors of Indoleamine 2,3-Dioxygenase 1 Through Structure-Based Virtual Screening” (Frontiers in Pharmacology, 2018).

Molecular target: T1, human IDO1 protein (Homo sapiens, UniProt P14902)
T1 construct: purchased ChemPartner Lot; No. 20160706
Assay: Enzymatic IDO1 assay (Absorbance 321 assay)
Type: biochemical
Settings: for Avg_Inh (%) @ 50uM: average inhibition, Table S2; for Background (%): background signal of the compound in the absorbance assay
Method: The standard assay mixture contained modified potassium phosphate buffer at pH 6.5, 100 μM L-tryptophan (Sigma, Cat. […] No. […]). […] Then the assay plate was read at OD321 kinetically in Spectramax. […] Fit the data in […]5.0 software to obtain IC50-values using Equation (2): (2) Y=Bottom+Top-Bottom/1+10^(logIC50-X)×HillSlope where Y stands for inhibition percentage and X stands for compound concentration. All determinations were carried out in duplicate.

T1 sequence (P14902 whole entry): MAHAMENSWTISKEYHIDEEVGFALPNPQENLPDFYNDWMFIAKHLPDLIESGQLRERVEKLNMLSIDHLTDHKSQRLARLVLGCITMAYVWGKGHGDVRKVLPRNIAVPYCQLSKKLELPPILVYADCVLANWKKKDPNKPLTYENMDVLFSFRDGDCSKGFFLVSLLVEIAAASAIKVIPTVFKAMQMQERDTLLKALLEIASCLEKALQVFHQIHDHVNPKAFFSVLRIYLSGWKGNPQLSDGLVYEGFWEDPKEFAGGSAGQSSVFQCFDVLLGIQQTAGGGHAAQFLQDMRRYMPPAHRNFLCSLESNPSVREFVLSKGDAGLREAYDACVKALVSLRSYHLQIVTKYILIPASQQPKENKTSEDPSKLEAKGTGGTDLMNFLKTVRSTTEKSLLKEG

O=C(Nc1ccccc1OCC1CCCO1)NC1CCCCC1 (stereo not shown) [DCI-050]
Avg_Inh (%) @ 50uM: 0.29%
Background (%): 31.57%

CC(O)Cn1c(=O)c(=O)[nH]c2ccccc21 (stereo not shown) [DCI-051]
Avg_Inh (%) @ 50uM: 6.69%
Background (%): 57.46%

Oc1cccc(C(O)CNCc2c(Cl)cccc2Cl)c1 (stereo not shown) [DCI-052]
Avg_Inh (%) @ 50uM: 3.32%
Background (%): 31.34%

CC(=O)c1[nH]c2ccccc2c1C(C)=O [DCI-053]
Avg_Inh (%) @ 50uM: 3.68%
Background (%): 43.33%

O=C1c2ccccc2C(=O)N1CNCc1cc(=O)[nH]c(=O)[nH]1 [DCI-054]
Avg_Inh (%) @ 50uM: 4.51%
Background (%): 48.55%

COc1ccc2oc(C(O)c3c(C)oc4ccc(OC)cc34)cc2c1 (stereo not shown) [DCI-056]
Avg_Inh (%) @ 50uM: 55.55%
Background (%): 43.42%

Cc1oc2ccc(O)cc2c1C(=O)c1ccc(Br)cc1 [DCI-057]
Avg_Inh (%) @ 50uM: 67.78%
Background (%): 57.09%

O=C1c2ccccc2NC(c2cccc([N+](=O)[O-])c2)N1O (stereo not shown) [DCI-058]
Avg_Inh (%) @ 50uM: 4.69%
Background (%): 37.75%

COc1ccc(C(=O)c2c[nH]cc2-c2ccccc2)cc1 [DCI-059]
Avg_Inh (%) @ 50uM: 17.41%
Background (%): 49.85%

Cc1cc(C)c2c(=O)cc(C(=O)Nc3cc(-c4ccc(F)cc4)no3)oc2c1 [DCI-060]
Avg_Inh (%) @ 50uM: 79.74%
Background (%): 59.25%

O=C(CSc1ncnc2sc3c(c12)CCC3)Nc1ccccc1 [DCI-061]
Avg_Inh (%) @ 50uM: 63.45%
Background (%): 54.35%

c1ccc2c3c(c(CN4CCCCC4)cc2c1)COC3 [DCI-062]
Avg_Inh (%) @ 50uM: 8.78%
Background (%): 33.45%

Cc1nn(C)cc1CN(C)C(=O)c1cc2ccccc2oc1=O [DCI-063]
Avg_Inh (%) @ 50uM: 2.41%
Background (%): 54.16%

O=C1NN(c2ncnc3sc4c(c23)CCCC4)C(=O)c2cccc3cccc1c23 [DCI-064]
Avg_Inh (%) @ 50uM: 6.57%
Background (%): 36.33%

Cc1nc2ccccc2cc1C(=O)N/N=C/c1cccc(Cl)c1 [DCI-065]
Avg_Inh (%) @ 50uM: 26.49%
Background (%): 68.09%

Cn1c(=O)c([N+](=O)[O-])c(Nc2ccc(Cl)cc2)c2ccccc21 [DCI-066]
Avg_Inh (%) @ 50uM: 24.55%
Background (%): 53.30%

Cc1onc(-c2ccccc2Cl)c1C(=O)Nc1cccc([N+](=O)[O-])c1 [DCI-067]
Avg_Inh (%) @ 50uM: 28.06%
Background (%): 37.16%

CCn1c(SCC(=O)Nc2ccccc2[N+](=O)[O-])nnc1-c1ccc(O)cc1 [DCI-068]
Avg_Inh (%) @ 50uM: 5.69%
Background (%): 35.54%

Cc1ccc(C2C(C#N)=C(N)Oc3ccc4ccc(O)cc4c32)cc1 (stereo not shown) [DCI-069]
Avg_Inh (%) @ 50uM: 79.20%
Background (%): 42.53%

COc1cc(C)c(Cl)cc1S(=O)(=O)Nc1cccc(C)c1C [DCI-070]
Avg_Inh (%) @ 50uM: 46.52%
Background (%): 35.28%

CC(C)(C)NC(=O)Cc1coc2ccc3ccccc3c12 [DCI-071]
Avg_Inh (%) @ 50uM: 22.41%
Background (%): 39.05%

O=[N+]([O-])c1ccccc1Sc1c(O)ccc2ccccc12 [DCI-072]
Avg_Inh (%) @ 50uM: 74.65%
Background (%): 49.90%

O=c1/c(=C/c2c(O)ccc3ccccc23)sc2n1CCCN=2 [DCI-073]
Avg_Inh (%) @ 50uM: 64.05%
Background (%): 54.63%

CCc1ccc(OCC(=O)Nc2ccccc2C(N)=O)c(Br)c1 [DCI-074]
Avg_Inh (%) @ 50uM: 21.71%
Background (%): 35.63%

O=C(COc1ccc2ccccc2c1)c1ccc(Br)cc1 [DCI-075]
Avg_Inh (%) @ 50uM: 79.98%
Background (%): 55.42%

Cc1ccccc1C(=O)Oc1ccc2ccc(O)cc2c1 [DCI-076]
Avg_Inh (%) @ 50uM: 43.35%
Background (%): 40.50%

N#CCn1nc(-c2ccc(Cl)cc2)c2c1-c1ccccc1C2 [DCI-077]
Avg_Inh (%) @ 50uM: 51.64%
Background (%): 57.47%

Cc1cc(C)c2c(N)c(C(=O)Nc3ccc(S(N)(=O)=O)cc3)sc2n1 [DCI-078]
Avg_Inh (%) @ 50uM: -8.99%
Background (%): 62.57%

O=C(O)c1ccc(Cn2nnc3cc4ccccc4cc32)cc1 [DCI-080]
Avg_Inh (%) @ 50uM: -3.23%
Background (%): 48.38%

O=c1[nH]c(CN2CCOCC2)nc2ccccc12 [DCI-081]
Avg_Inh (%) @ 50uM: -6.95%
Background (%): 38.30%

CCC(C(=O)Nc1cccc(C(C)O)c1)c1ccccc1 (stereo not shown) [DCI-082]
Avg_Inh (%) @ 50uM: -2.26%
Background (%): 35.32%

Cc1ccc([N+](=O)[O-])cc1NC(=O)COc1ccc2ccccc2c1Br [DCI-083]
Avg_Inh (%) @ 50uM: 40.17%
Background (%): 40.73%

COc1ccc2ccccc2c1/C=N/NC(N)=S [DCI-084]
Avg_Inh (%) @ 50uM: 35.60%
Background (%): 64.61%

CC(=O)Nc1ccc(NC(=O)COc2ccc(Br)cc2C)cc1 [DCI-085]
Avg_Inh (%) @ 50uM: -4.72%
Background (%): 37.26%

O=C(COc1ccc2ccccc2c1)Nc1cccc(Cl)c1 [DCI-086]
Avg_Inh (%) @ 50uM: 77.96%
Background (%): 50.53%

Cc1cc(C)c(S(=O)(=O)N2CCC(C(N)=O)CC2)cc1C [DCI-087]
Avg_Inh (%) @ 50uM: -2.50%
Background (%): 34.87%

COc1cc(C(=O)Nc2ccc(S(N)(=O)=O)cc2)cc(OC)c1OC [DCI-088]
Avg_Inh (%) @ 50uM: -0.32%
Background (%): 43.06%

COc1ccc2ccccc2c1CNC(C)c1ccccc1 (stereo not shown) [DCI-091]
Avg_Inh (%) @ 50uM: -6.47%
Background (%): 41.00%

COc1ccc2ccccc2c1CNc1ncn[nH]1 [DCI-092]
Avg_Inh (%) @ 50uM: 1.56%
Background (%): 40.57%

O=C(c1ccc(OCCc2ccccc2)cc1)N1CCCC1 [DCI-093]
Avg_Inh (%) @ 50uM: 2.13%
Background (%): 35.52%

Cc1cc(=O)oc2cc(OCC(O)Cn3c(C)nc4ccccc43)ccc12 (stereo not shown) [DCI-094]
Avg_Inh (%) @ 50uM: -10.06%
Background (%): 75.33%

O=C(Cc1coc2ccc3ccccc3c12)N1CCCC1 [DCI-095]
Avg_Inh (%) @ 50uM: -1.55%
Background (%): 43.56%

Cc1ccc(C)c(NS(=O)(=O)c2ccc3ccccc3c2)c1 [DCI-096]
Avg_Inh (%) @ 50uM: 58.68%
Background (%): 49.37%

COc1ccc2nc(C(C)O)[nH]c2c1 (stereo not shown) [DCI-097]
Avg_Inh (%) @ 50uM: -2.09%
Background (%): 37.58%
